Assay results: US20070015774A1, “Quinazoline derivatives useful in cancer treatment” (Schering Corporation, priority 2005, published 2007)

Each molecule was assayed against GST-p53 DNA binding domain (aa 92-aa 312) (Homo sapiens, UniProt P04637) (assay: Scintillation Proximity Assay (SPA), displacement of 3H STANDARD COMPOUND). Details: 1 h, 2 ug/mL of drug; exact values; number in brackets = number of determinations averaged; read-out: SPA ASSAY % Residual T @ 2 ug/mL of drug (Average of).
Source text: Most of the oncogenic mutants of the tumor suppressor protein p53 lack sequence specific DNA binding activity at physiological temperature due to conformational changes in the DNA binding domain. Small molecules and peptide which bind to the p53 DNA binding domain stabilize the conformation and restore DNA binding activity to mutant p53 protein (Science 286, 2507-2510, 1999; PNAS, 99, 937-942, 2002). Using ^3H STANDARD COMPOUND (structure shown below; carbon atom with * is the atom labelled), [drawing 1366] a radio labeled small molecule which binds to p53, and the GST-p53 DNA binding domain (aa 92-aa 312), we have developed a quantitative screening assay. The assay is based on Scintillation Proximity Assay (SPA) technology, developed by Amersham Biosciences to measure molecular interactions. Briefly, the complex of GST-p53, ^3H STANDARD and Glutathione-SPA beads (Amersham Biosciences) are incubated with mixing for 1 hr at room temperature in the presence of the novel compounds to be screened. The signal is read on Microbeta. The compounds which have the ability to displace ^3H STANDARD COMPOUND are selected. Such molecules will stabilize the conformation and restore DNA binding activity to mutant p53 protein.
The above assay was used to determine the ability of the compounds of this invention to directly bind to p53 core and restore DNA binding activity to mutant p53 and the results for selected compounds have been given above in various tables.
A letter rating corresponding to % Residual total binding (T) @ 2 ug/mL of drug (i.e., compound of the present invention) from this assay have been assigned as follows: Compounds having % Residual T values of from 0% to less than 20% have been assigned the letter “A”. Compounds having % Residual T values of from 20% to less than 40% have been assigned the letter “B”. Compounds having % Residual T values of from 40% to less than 80% have been assigned the letter “C”. Compounds having % Residual T values of 80% or higher have been assigned the letter “D”. The exact % Residual T values @ 2 ug/mL for some illustrative compounds are shown below: […]

Sequence of GST-p53 DNA binding domain (aa 92-aa 312) (P04637 92-312): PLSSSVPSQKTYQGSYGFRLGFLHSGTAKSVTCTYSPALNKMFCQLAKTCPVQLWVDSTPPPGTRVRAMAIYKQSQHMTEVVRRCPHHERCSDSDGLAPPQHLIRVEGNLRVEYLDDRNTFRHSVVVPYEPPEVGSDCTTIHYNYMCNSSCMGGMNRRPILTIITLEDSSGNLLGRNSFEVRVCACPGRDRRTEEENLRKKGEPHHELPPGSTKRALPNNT

Point of comparison: Cc1c(CN(C)Cc2nc(NCCCN(C)C)c3ccccc3n2)sc2ccccc12 [38-56], remaining activity at 2 µg/mL 23.6%. Against it:
- CN(C)CCCNc1nc(CN(C)Cc2cccc3cc[nH]c23)nc2ccccc12 [38-33] — higher, 25.7%

Same assay, conditions: 1 h, 2 ug/mL of drug; letter rating; number in brackets = number of determinations averaged; read-out: SPA ASSAY % Residual T @ 2 ug/mL of drug (Average of)

First: CC(C)CCN(C)Cc1nc(NCCCN(C)C)c2ccccc2n1 [38-1]
Second: CCC(C)CN(C)Cc1nc(NCCCN(C)C)c2ccccc2n1 (stereo not shown) [38-2]
The remaining activity at 2 µg/mL of the first is lower: 20 to 40% for the first, 40 to 80% for the second.

CN(C)CCCNc1nc(CN(C)Cc2ccco2)nc2ccccc12 [38-3] and CN(C)CCCNc1nc(CN(C)Cc2ccoc2)nc2ccccc12 [38-4] fall in the same range of remaining activity at 2 µg/mL: 40 to 80% for the first, 40 to 80% for the second.

Compared with CN(C)CCCNc1nc(CN(C)Cc2cccs2)nc2ccccc12 [38-8], CN(C)CCCNc1nc(CN(C)Cc2nccs2)nc2ccccc12 [38-10] is lower in remaining activity at 2 µg/mL: at least 80% for the first, 20 to 40% for the second.

CN(C)CCCNc1nc(CN(C)Cc2cccc(F)c2)nc2ccccc12 [38-16] and CN(C)CCCNc1nc(CN(C)Cc2cccc(C#N)c2)nc2ccccc12 [38-19] cannot be ordered by remaining activity at 2 µg/mL: at least 80% for the first, 40 to 80% for the second.

CN(C)CCCNc1nc(CN(C)Cc2ccccc2C#N)nc2ccccc12 [38-18] and CN(C)CCCNc1nc(CN(C)Cc2ccccc2C(=O)O)nc2ccccc12 [38-36] cannot be ordered by remaining activity at 2 µg/mL: 40 to 80% for the first, at least 80% for the second.

CN(C)CCCNc1nc(CN(C)Cc2ccc(C#N)cc2)nc2ccccc12 [38-20] and CN(C)CCCNc1nc(CN(C)Cc2ccc(Cl)cc2)nc2ccccc12 [38-30] fall in the same range of remaining activity at 2 µg/mL: 40 to 80% for the first, 40 to 80% for the second.

CN(C)CCCNc1nc(CN(C)C/C=C/c2ccccc2)nc2ccccc12 [38-21] and CC(CCN(C)Cc1nc(NCCCN(C)C)c2ccccc2n1)c1ccccc1 (stereo not shown) [38-35] cannot be ordered by remaining activity at 2 µg/mL: at least 80% for the first, at least 80% for the second.

Cc1cccc(C)c1CN(C)Cc1nc(NCCCN(C)C)c2ccccc2n1 [38-24] and CN(C)CCCNc1nc(CN(C)Cc2c(F)cccc2F)nc2ccccc12 [38-31] cannot be ordered by remaining activity at 2 µg/mL: at least 80% for the first, 40 to 80% for the second.

COc1ccc(CN(C)Cc2nc(NCCCN(C)C)c3ccccc3n2)cc1 [38-27] and COC(=O)c1ccc(CN(C)Cc2nc(NCCCN(C)C)c3ccccc3n2)cc1 [38-46] fall in the same range of remaining activity at 2 µg/mL: 40 to 80% for the first, 40 to 80% for the second.

CCOC(=O)C1CC1CN(C)Cc1nc(NCCCN(C)C)c2ccccc2n1 (stereo not shown) [38-32] and CN(C)CCCNc1nc(CN(C)Cc2ccccc2OCC(=O)O)nc2ccccc12 [38-57] cannot be ordered by remaining activity at 2 µg/mL: 40 to 80% for the first, at least 80% for the second.

Compared with CN(C)CCCNc1nc(CN(C)Cc2cccc3cc[nH]c23)nc2ccccc12 [38-33], CN(C)CCCNc1nc(CN(C)Cc2cccc3ccccc23)nc2ccccc12 [38-41] is higher in remaining activity at 2 µg/mL: 20 to 40% for the first, 40 to 80% for the second.

CN(C)CCCNc1nc(CN(C)Cc2cc3ccccc3o2)nc2ccccc12 [38-34] and CN(C)CCCNc1nc(CN(C)Cc2ccc3ccccc3c2)nc2ccccc12 [38-42] fall in the same range of remaining activity at 2 µg/mL: 40 to 80% for the first, 40 to 80% for the second.

CN(C)CCCNc1nc(CN(C)Cc2cccc3c2OCO3)nc2ccccc12 [38-37] and CN(C)CCCNc1nc(CN(C)Cc2cccc(Cl)c2Cl)nc2ccccc12 [38-50] cannot be ordered by remaining activity at 2 µg/mL: 40 to 80% for the first, at least 80% for the second.

CN(C)CCCNc1nc(CN(C)Cc2cccc(C(F)(F)F)c2)nc2ccccc12 [38-48] and CN(C)CCCNc1nc(CN(C)Cc2cc(Cl)ccc2Cl)nc2ccccc12 [38-52] fall in the same range of remaining activity at 2 µg/mL: 40 to 80% for the first, 40 to 80% for the second.

First: Cc1c(CN(C)Cc2nc(NCCCN(C)C)c3ccccc3n2)sc2ccccc12 [38-56]
Second: CN(C)CCCNc1nc(CN(C)Cc2ccc(-c3ccccc3)cc2)nc2ccccc12 [38-59]
The remaining activity at 2 µg/mL of the first is lower: 20 to 40% for the first, at least 80% for the second.

Same assay, conditions: 1 h, 2 ug/mL of drug; residual total binding of 3H STANDARD COMPOUND; lower is better; read-out: SPA ASSAY % Residual T @ 2 ug/mL of drug (Average of)

COC(=O)[C@@H](Nc1nc(CNC(=O)Nc2ccccc2C(F)(F)F)nc2ccccc12)C(C)C [34-36] and COC(=O)[C@@H](Nc1nc(CNC(=O)Nc2cccc(Br)c2)nc2ccccc12)C(C)C [34-42] fall in the same range of remaining activity at 2 µg/mL: 40 to 80% for the first, 40 to 80% for the second.

COC(=O)[C@@H](Nc1nc(CNC(=O)Nc2ccc(Cl)c(Cl)c2)nc2ccccc12)C(C)C [34-39] and COC(=O)[C@@H](Nc1nc(CNC(=O)Nc2cc(Cl)cc(Cl)c2)nc2ccccc12)C(C)C [34-40] fall in the same range of remaining activity at 2 µg/mL: 40 to 80% for the first, 40 to 80% for the second.

With COC(=O)[C@@H](Nc1nc(CNC(=O)Nc2ccccc2-c2ccccc2)nc2ccccc12)C(C)C [34-41] the remaining activity at 2 µg/mL was 40 to 80%.
